Measurements published in US20190008155A1, “Synergistic Agricultural Formula Comprising Diacyl or Diaryl Urea and At Least One Plant Growth Regulator” (Stoller Enterprises, Inc., priority 2017, published 2019).

Experiments:
Format in all cases: in vivo
[1] = test system: corn; experiment: Yield, V3-V5 foliar corn treatment (FIG. 9); details: statistical data for FIG. 9, yield
Text: FIG. 9 is a graph showing V3-V5 foliar corn treatment using a synergistic agricultural formula in accordance with the present invention including 7.5 wt. % DFU and 0.01 wt. % cytokinin applied at a Pint/Acre compared to each individual component applied at a Pint/Acre.
(§1) The statistical data for this analysis is provided as follows: […]

[2] = test system: winter wheat; experiment: Yield upon winter wheat seed treatment (FIG. 6); details: statistical data for FIG. 6, yield
Text: FIG. 6 is a graph showing the yield upon winter wheat seed treatment using a synergistic agricultural formula in accordance with the present invention including 14 wt. % DFU and 10 wt. % of Stollers STIMULATE YE Plant Growth Regulator Mix applied at a Pint/Acre compared to each individual component applied at a Pint/Acre;
as §1

[3] = test system: corn; experiment: Yield in furrow corn treatment (FIG. 8); details: statistical data for FIG. 8, yield
Text: FIG. 8 is a graph showing the yield in furrow corn treatment using a synergistic agricultural formula in accordance with the present invention including 7.5 wt. % DFU, 0.01 wt. % cytokinin, and 0.05 wt. % IAA applied at a Pint/Acre compared to each individual component applied at a Pint/Acre; and
as §1

[4] = test system: soybean; experiment: Yield upon soybean seed treatment (FIG. 7); details: statistical data for FIG. 7, yield
Text: FIG. 7 is a graph showing the yield upon soybean seed treatment using a synergistic agricultural formula in accordance with the present invention including 14 wt. % DFU and 10 wt. % of Stollers STIMULATE YE Plant Growth Regulator Mix applied at a Pint/Acre compared to each individual component applied at a Pint/Acre;
as §1

[5] = test system: corn; experiment: Yield upon corn seed treatment (FIG. 5); details: statistical data for FIG. 5, yield
Text: FIG. 5 is a graph showing the yield upon corn seed treatment using a synergistic agricultural formula in accordance with the present invention including 14 wt. % DFU and 10 wt. % of Stollers STIMULATE YE Plant Growth Regulator Mix applied at a Pint/Acre compared to each individual component applied at a Pint/Acre;
as §1

With `O=CNC(=O)NC=O` [15% DFU, N,N′-diformylurea] the “p Vs Combination” value [1] was 0.0677, the “p Vs Control” value [1] was 0.6829 and the “p Vs Combination” value [2] was 0.0089. For the same compound, the “p Vs Control” value [2] was 0.0026, the “p Vs Combination” value [3] was 0.0622 and the “p Vs Control” value [3] was 0.5485. For the same compound, the “p Vs Combination” value [4] was 0.052, the “p Vs Control” value [4] was 0.4492 and the “p Vs Combination” value [5] was 0.0442. The “p Vs Control” value [5] was 0.8782.
